In US10131652B2, “Pyrimidinyloxy benzene derivatives as herbicides” (E. I. DU PONT DE NEMOURS AND COMPANY, priority 2014, dated 2018):
Read-outs that look alike come from different tables or passages of the source.

Key:
Type in all cases: in vivo
[1] = tested on: barnyardgrass (Echinochloa crus-galli); experiment: Test B pre-/postemergence plant response; settings: for pest or weed control at 500 g/ha: 500 g ai/ha
Method in brief: (§1)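 Steps: plant seeds in loam soil–sand mix; spray soil preemergence, and in parallel spray 2–10 cm one- to two-leaf plants postemergence; hold ~10 days in greenhouse; visually rate injury against untreated controls (0 = no effect, 100 = complete control).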

[2] = tested on: pigweed (Amaranthus retroflexus); experiment: Test B pre-/postemergence plant response; settings: for pest or weed control at 500 g/ha: 500 g ai/ha
Method in brief: as §1

[3] = tested on: wheat (Triticum aestivum); experiment: Test B pre-/postemergence plant response; settings: for plant injury at 500 g/ha: 500 g ai/ha
Method in brief: as §1

[4] = tested on: corn (Zea mays); experiment: Test B pre-/postemergence plant response; settings: for Corn plant response rating (crop injury, 0 = no effect, 100 = complete kill) at 500 g/ha: 500 g ai/ha
Method in brief: as §1

[5] = tested on: giant foxtail (Setaria faberii); experiment: Test B pre-/postemergence plant response; settings: for pest or weed control at 500 g/ha: 500 g ai/ha
Method in brief: as §1

[6] = tested on: waterhemp (common waterhemp, Amaranthus rudis); experiment: Test D pre-/postemergence plant response; settings: Amaranthus tuberculatus; for pest or weed control at 16 g/ha: 16 g ai/ha; for pest or weed control at 31 g/ha: 31 g ai/ha; for pest or weed control at 62 g/ha: 62 g ai/ha; for pest or weed control at 125 g/ha: 125 g ai/ha
Method in brief: (§2)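 Each compound, in non-phytotoxic solvent with surfactant, was sprayed onto soil right after sowing or onto young plants 2 to 18 cm tall. After 13 to 15 days under greenhouse conditions, effects were judged visually against controls on a 0 (no effect) to 100 (complete control) scale.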

[7] = tested on: ragweed (common ragweed, Ambrosia elatior); experiment: Test D pre-/postemergence plant response; settings: Ambrosia artemisiifolia; for pest or weed control at 16 g/ha: 16 g ai/ha; for pest or weed control at 31 g/ha: 31 g ai/ha; for pest or weed control at 62 g/ha: 62 g ai/ha; for pest or weed control at 125 g/ha: 125 g ai/ha
Method in brief: as §2

[8] = tested on: barnyardgrass (Echinochloa crus-galli); experiment: Test D pre-/postemergence plant response; settings: Echinochloa crus-galli; for pest or weed control at 16 g/ha: 16 g ai/ha; for pest or weed control at 31 g/ha: 31 g ai/ha; for pest or weed control at 62 g/ha: 62 g ai/ha; for pest or weed control at 125 g/ha: 125 g ai/ha
Method in brief: as §2

[9] = tested on: pigweed (Amaranthus retroflexus); experiment: Test D pre-/postemergence plant response; settings: Amaranthus retroflexus; for pest or weed control at 16 g/ha: 16 g ai/ha; for pest or weed control at 31 g/ha: 31 g ai/ha; for pest or weed control at 62 g/ha: 62 g ai/ha; for pest or weed control at 125 g/ha: 125 g ai/ha
Method in brief: as §2

[10] = tested on: johnsongrass (Sorghum halepense); experiment: Test D pre-/postemergence plant response; settings: Sorghum halepense, post-emergence, Postemergence
Method in brief: as §2

[11] = Preemergence, 125 g ai/ha, 0 to 100 scale (0 no effect, 100 complete control)
[12] = pre-emergence, Preemergence, scale 0 to 100 (0 no effect, 100 complete control), read-out: Plant response rating, Waterhemp
[13] = pre-emergence, Preemergence, scale 0 to 100 (0 no effect, 100 complete control), read-out: Plant response rating, Ragweed
[14] = post-emergence, Postemergence, scale 0 to 100, 0 no effect, 100 complete control, read-out: Plant response rating, Barnyardgrass
[15] = pre-emergence, Preemergence, scale 0 to 100 (0 no effect, 100 complete control), read-out: Plant response rating, Barnyardgrass
[16] = pre-emergence, Preemergence, scale 0 to 100 (0 no effect, 100 complete control), read-out: Plant response rating, Pigweed

With `FC(F)(F)c1cc(-c2ccccc2Oc2ncc(Cl)cn2)no1` [Compound 200, 5-chloro-2-[2-[5-(trifluoromethyl)-3-isoxazolyl]phenoxy]pyrimidine] the pest or weed control at 125 g/ha ([1]; Echinochloa crus-galli, post-emergence, 240 h, 125 g ai/ha, postemergence, 0 to 100 scale, 0 no effect, 100 complete control, read-out: Plant response rating, Barnyardgrass) was 90%, the pest or weed control at 500 g/ha ([1]; Echinochloa crus-galli, post-emergence, 240 h, postemergence, 0 to 100 scale, 0 no effect, 100 complete control, read-out: Plant response rating, Barnyardgrass) was 100% and the pest or weed control at 500 g/ha ([1]; Echinochloa crus-galli, pre-emergence, 240 h, Preemergence, 0 to 100 scale where 0 is no effect and 100 is complete control, read-out: Plant response rating, Barnyardgrass) was 100%. For the same compound, the “Barnyardgrass plant response rating” value [1, 11] was 100, the pest or weed control at 125 g/ha ([2]; Amaranthus retroflexus, post-emergence, 240 h, 125 g ai/ha, postemergence, 0 to 100 scale, 0 no effect, 100 complete control, read-out: Plant response rating, Pigweed) was 100% and the pest or weed control at 500 g/ha ([2]; Amaranthus retroflexus, post-emergence, 240 h, postemergence, 0 to 100 scale, 0 no effect, 100 complete control, read-out: Plant response rating, Pigweed) was 100%. For the same compound, the pest or weed control at 500 g/ha ([2]; Amaranthus retroflexus, pre-emergence, 240 h, Preemergence, 0 to 100 scale where 0 is no effect and 100 is complete control, read-out: Plant response rating, Pigweed) was 100%, the “Pigweed plant response rating” value [2, 11] was 100 and the “Wheat plant response rating” value [3, 11] was 20. For the same compound, the plant injury at 125 g/ha ([3]; Triticum aestivum, post-emergence, 240 h, 125 g ai/ha, postemergence, 0 to 100 scale, 0 no effect, 100 complete control, read-out: Plant response rating, Wheat) was 60%, the plant injury at 500 g/ha ([3]; Triticum aestivum, post-emergence, 240 h, postemergence, 0 to 100 scale, 0 no effect, 100 complete control, read-out: Plant response rating, Wheat) was 100% and the plant injury at 500 g/ha ([3]; Triticum aestivum, pre-emergence, 240 h, Preemergence, 0 to 100 scale where 0 is no effect and 100 is complete control, read-out: Plant response rating, Wheat) was 90%. The “Corn plant response rating” value [4, 11] was 20, the Corn plant response rating (crop injury, 0 = no effect, 100 = complete kill) at 125 g/ha ([4]; Zea mays, post-emergence, 240 h, 125 g ai/ha, postemergence, 0 to 100 scale, 0 no effect, 100 complete control) was 50% and the Corn plant response rating (crop injury, 0 = no effect, 100 = complete kill) at 500 g/ha ([4]; Zea mays, post-emergence, 240 h, postemergence, 0 to 100 scale, 0 no effect, 100 complete control) was 90%. The Corn plant response rating (crop injury, 0 = no effect, 100 = complete kill) at 500 g/ha ([4]; Zea mays, pre-emergence, 240 h, Preemergence, 0 to 100 scale where 0 is no effect and 100 is complete control) was 100%, the “Foxtail, Giant plant response rating” value [5, 11] was 100 and the pest or weed control at 125 g/ha ([5]; Setaria faberi, post-emergence, 240 h, 125 g ai/ha, postemergence, 0 to 100 scale, 0 no effect, 100 complete control, read-out: Plant response rating, Foxtail, Giant) was 100%. For the same compound, the pest or weed control at 500 g/ha ([5]; Setaria faberi, post-emergence, 240 h, postemergence, 0 to 100 scale, 0 no effect, 100 complete control, read-out: Plant response rating, Foxtail, Giant) was 100%, the pest or weed control at 500 g/ha ([5]; Setaria faberi, pre-emergence, 240 h, Preemergence, 0 to 100 scale where 0 is no effect and 100 is complete control, read-out: Plant response rating, Foxtail, Giant) was 100% and the pest or weed control at 16 g/ha ([6]; post-emergence, Postemergence, read-out: Plant response rating (scale 0 to 100), Waterhemp) was 80%. For the same compound, the pest or weed control at 31 g/ha ([6]; post-emergence, Postemergence, scale 0 to 100 (0 no effect, 100 complete control), read-out: Waterhemp plant response rating) was 90%, the pest or weed control at 62 g/ha ([6]; post-emergence, Postemergence, scale 0 to 100, 0 no effect, 100 complete control, read-out: Waterhemp plant response rating) was 98% and the pest or weed control at 125 g/ha ([6]; post-emergence, Postemergence, scale 0 to 100, 0 no effect, 100 complete control, read-out: Plant response rating, Waterhemp) was 100%. It also gave a pest or weed control at 125 g/ha ([6]; pre-emergence, Preemergence, read-out: Plant response rating (scale 0 to 100), Waterhemp) of 100%, a pest or weed control at 16 g/ha [6, 12] of 98% and a pest or weed control at 31 g/ha [6, 12] of 100%. The pest or weed control at 62 g/ha [6, 12] was 100%, the pest or weed control at 16 g/ha ([7]; post-emergence, Postemergence, read-out: Plant response rating (scale 0 to 100), Ragweed) was 30% and the pest or weed control at 31 g/ha ([7]; post-emergence, Postemergence, scale 0 to 100 (0 no effect, 100 complete control), read-out: Ragweed plant response rating) was 55%. The pest or weed control at 62 g/ha ([7]; post-emergence, Postemergence, scale 0 to 100, 0 no effect, 100 complete control, read-out: Ragweed plant response rating) was 60%, the pest or weed control at 125 g/ha ([7]; post-emergence, Postemergence, scale 0 to 100, 0 no effect, 100 complete control, read-out: Plant response rating, Ragweed) was 40% and the pest or weed control at 125 g/ha ([7]; pre-emergence, Preemergence, read-out: Plant response rating (scale 0 to 100), Ragweed) was 80%. For the same compound, the pest or weed control at 16 g/ha [7, 13] was 0%, the pest or weed control at 31 g/ha [7, 13] was 5% and the pest or weed control at 62 g/ha [7, 13] was 70%. It also gave a pest or weed control at 16 g/ha ([8]; post-emergence, Postemergence, read-out: Plant response rating (scale 0 to 100), Barnyardgrass) of 5%, a pest or weed control at 31 g/ha ([8]; post-emergence, Postemergence, scale 0 to 100 (0 no effect, 100 complete control), read-out: Barnyardgrass plant response rating) of 10% and a pest or weed control at 62 g/ha [8, 14] of 10%. It also gave a pest or weed control at 125 g/ha [8, 14] of 15%, a pest or weed control at 125 g/ha ([8]; pre-emergence, Preemergence, read-out: Plant response rating (scale 0 to 100), Barnyardgrass) of 100% and a pest or weed control at 16 g/ha [8, 15] of 35%. The pest or weed control at 31 g/ha [8, 15] was 95%, the pest or weed control at 62 g/ha [8, 15] was 100% and the pest or weed control at 16 g/ha ([9]; post-emergence, Postemergence, read-out: Plant response rating (scale 0 to 100), Pigweed) was 90%. For the same compound, the pest or weed control at 31 g/ha ([9]; post-emergence, Postemergence, scale 0 to 100 (0 no effect, 100 complete control), read-out: Pigweed plant response rating) was 85%, the pest or weed control at 62 g/ha ([9]; post-emergence, Postemergence, scale 0 to 100, 0 no effect, 100 complete control, read-out: Pigweed plant response rating) was 85% and the pest or weed control at 125 g/ha ([9]; post-emergence, Postemergence, scale 0 to 100, 0 no effect, 100 complete control, read-out: Plant response rating, Pigweed) was 98%. The pest or weed control at 125 g/ha ([9]; pre-emergence, Preemergence, read-out: Plant response rating (scale 0 to 100), Pigweed) was 100%, the pest or weed control at 16 g/ha [9, 16] was 100% and the pest or weed control at 31 g/ha [9, 16] was 100%. The pest or weed control at 62 g/ha [9, 16] was 100%, the pest or weed control at 16 g/ha ([10]; 16 g ai/ha, read-out: Plant response rating (scale 0 to 100), Johnsongrass) was 15% and the pest or weed control at 31 g/ha ([10]; 31 g ai/ha, scale 0 to 100 (0 no effect, 100 complete control), read-out: Johnsongrass plant response rating) was 20%.
